According to BindingDB's records for doi:10.1016/j.bmc.2015.03.047 (Shanghai Institute of Technology, 2015):

Molecular target: Rho-associated protein kinase 2 (Homo sapiens, UniProt O75116)
Experiment: Inhibition of ROCK2 (unknown origin) using STK2 substrate after 4 hrs by HTRF mode

Sequence of Rho-associated protein kinase 2 (O75116 whole entry): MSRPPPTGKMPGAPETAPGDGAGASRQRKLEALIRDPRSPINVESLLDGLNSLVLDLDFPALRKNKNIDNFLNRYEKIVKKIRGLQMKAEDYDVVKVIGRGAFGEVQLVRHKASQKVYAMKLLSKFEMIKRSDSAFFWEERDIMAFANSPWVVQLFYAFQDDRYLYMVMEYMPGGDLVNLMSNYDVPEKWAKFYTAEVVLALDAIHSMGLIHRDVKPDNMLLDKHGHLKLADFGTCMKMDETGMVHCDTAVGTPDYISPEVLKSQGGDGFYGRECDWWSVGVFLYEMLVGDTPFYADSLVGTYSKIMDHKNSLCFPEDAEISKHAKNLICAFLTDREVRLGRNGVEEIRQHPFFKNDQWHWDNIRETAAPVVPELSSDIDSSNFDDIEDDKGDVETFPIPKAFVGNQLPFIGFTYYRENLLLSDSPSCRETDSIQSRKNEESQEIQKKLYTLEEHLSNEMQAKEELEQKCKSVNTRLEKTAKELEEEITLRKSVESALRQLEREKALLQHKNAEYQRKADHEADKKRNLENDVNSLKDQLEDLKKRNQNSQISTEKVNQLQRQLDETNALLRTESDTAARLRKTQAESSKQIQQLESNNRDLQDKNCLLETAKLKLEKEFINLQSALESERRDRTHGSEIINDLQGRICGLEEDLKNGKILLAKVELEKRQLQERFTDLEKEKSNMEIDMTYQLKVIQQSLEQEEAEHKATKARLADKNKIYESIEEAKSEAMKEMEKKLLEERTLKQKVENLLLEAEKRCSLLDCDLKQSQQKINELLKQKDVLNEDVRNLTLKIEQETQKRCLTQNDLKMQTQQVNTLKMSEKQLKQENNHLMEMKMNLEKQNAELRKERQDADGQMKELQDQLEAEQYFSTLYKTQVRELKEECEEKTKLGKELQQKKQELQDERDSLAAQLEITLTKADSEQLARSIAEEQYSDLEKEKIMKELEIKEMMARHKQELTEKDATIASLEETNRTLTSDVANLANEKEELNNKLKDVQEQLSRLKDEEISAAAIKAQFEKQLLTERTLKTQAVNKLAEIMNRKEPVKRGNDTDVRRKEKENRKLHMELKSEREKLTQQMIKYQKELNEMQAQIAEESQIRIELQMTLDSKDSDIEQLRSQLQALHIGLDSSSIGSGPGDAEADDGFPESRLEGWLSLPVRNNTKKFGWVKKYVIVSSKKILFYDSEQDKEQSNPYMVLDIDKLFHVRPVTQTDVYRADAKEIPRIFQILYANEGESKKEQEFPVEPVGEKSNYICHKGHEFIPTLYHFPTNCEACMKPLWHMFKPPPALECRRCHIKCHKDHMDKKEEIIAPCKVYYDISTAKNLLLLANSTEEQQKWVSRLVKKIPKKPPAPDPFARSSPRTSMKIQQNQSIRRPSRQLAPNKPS

IC50: 751 nM
SMILES: CNC(=O)N(CCO)c1ccc(-c2cn[nH]c2)cc1
